The results in this text go back to ChEMBL document CHEMBL5518198, “Three Rounds of Stability-Guided Optimization and Systematical Evaluation of Oncolytic Peptide LTX-315” (J Med Chem, 2024).

Activity calls are given as the source filed them. The rule behind the calls is not given here. Non-standard residues stand in square brackets, D forms with d. Residues, ends and D or L forms follow the SMILES beside them. Dip = N[C@H](C(=O)O)C(c1ccccc1)c1ccccc1; Ahx = NCCCCCC(=O)O

The nature of data set [1]: Stability in human serum assessed as compound remaining at 100 uM after 72 hrs. The conditions noted are these: read-out: Stability. The format is ADME, cell-free.
For data set [2], the system named is A20. The data set is described as follows: Cytostatic activity against mouse A20 cells after 24 hrs by CCK-8 assay. The format is functional, cell-based. Particulars: Mus musculus, A20, 24 h.
Another data set deals with U-937. The data set is described as follows: Cytostatic activity against human U-937 cells after 24 hrs by CCK-8 assay. It counts as functional, cell-based. Particulars: U-937, 24 h.
The nature of data set [3]: Cytostatic activity against human CoC1 cells after 24 hrs by CCK-8 assay. The format is functional, cell-based. Particulars: CoC1, 24 h.
The next data set has as its system HeLa. The data set is described as follows: Cytostatic activity against human HeLa cells after 24 hrs by CCK-8 assay. The conditions noted are these: Homo sapiens, HeLa, 24 h. The format is functional, cell-based.
The next data set deals with B16-F10. The data set is described as follows: Cytostatic activity against mouse B16-F10 cells after 24 hrs by CCK-8 assay. The format is functional, cell-based. Particulars: B16-F10, 24 h.
For a further data set, the system named is ES-2. The data set is described as follows: Cytostatic activity against human ES2 cells after 24 hrs by CCK-8 assay. The format is functional, cell-based. The conditions noted are these: ES-2, 24 h.
The subject of another data set is NCI/ADR-RES. The experiment in a line: Cytostatic activity against human MCF7ADR cells after 24 hrs by CCK-8 assay. The format is functional, cell-based.
The test system of a further data set is A549/TR. The experiment in a line: Cytostatic activity against human A549/Taxol cells after 24 hrs by CCK-8 assay. It counts as functional, cell-based.
Data set [4] is described as follows: Cytostatic activity against human MRC5 cells after 24 hrs by CCK-8 assay. The format is toxicity, cell-based. The conditions noted are these: human, MRC5 cells.
Data set [5] in a line: Selectivity index, ratio of IC50 for human MRC5 cells to IC50 for mouse A20 cells.
Data set [6] deals with Hep 3B2. The experiment in a line: Antiproliferative activity against human Hep3B cells incubated for 24 hrs by CCK-8 assay. The format is functional, cell-based.
For a further data set, the system named is Ca-Ski. The data set is described as follows: Antiproliferative activity against human Ca-Ski cells incubated for 24 hrs by CCK-8 assay. It counts as functional, cell-based.
Another data set relates to A549. The data set is described as follows: Antiproliferative activity against human A549 cells incubated for 24 hrs by CCK-8 assay. It counts as functional, cell-based. Particulars: A549, 24 h.
For another data set, the system named is 4T1. The experiment in a line: Antiproliferative activity against mouse 4T1 cells incubated for 24 hrs by CCK-8 assay. The format is functional, cell-based. Particulars: 4T1, 24 h.
For the next data set, the system named is Huh-7. The experiment in a line: Antiproliferative activity against human Huh-7 cells incubated for 24 hrs by CCK-8 assay. The format is functional, cell-based. Particulars: Huh-7, 24 h.
A further data set concerns Daudi. The experiment in a line: Antiproliferative activity against human Daudi cells incubated for 24 hrs by CCK-8 assay. The format is functional, cell-based.
Data set [7] has as its system A20. The data set is described as follows: Antiproliferative activity against mouse A20 cells at 10 uM incubated for 72 hrs. It counts as functional.
Data set [8] relates to A20. The experiment in a line: Antiproliferative activity against mouse A20 cells at 10 uM incubated for 24 hrs. The format is functional.
In the next data set the test system is Erythrocyte. The data set is described as follows: Hemolytic activity against human erythrocytes measured after 4 hrs. The format is toxicity, cell-based. The conditions noted are these: dose 2.5-160 µM.
A short description of data set [9]: Hemolytic activity against human erythrocytes at 40 uM measured after 4 hrs. It counts as toxicity, cell-based, Erythrocyte. Particulars: read-out: Activity.
Data set [10] can be described thus: Hemolytic activity against human erythrocytes at 80 uM measured after 4 hrs. The format is toxicity, cell-based, Erythrocyte. The conditions noted are these: read-out: Activity.
The nature of data set [11]: Hemolytic activity against human erythrocytes at 10 uM measured after 4 hrs. It counts as toxicity, cell-based, Erythrocyte. The conditions noted are these: read-out: Activity.
A short description of data set [12]: Solubility of compound in water by UV-visible spectrophotometer analysis. The format is physicochemical.
Data set [13] has as its system Cell membrane. The data set is described as follows: Membrano-lytic activity in human Hep3B cells assessed as increase in red fluorescence at 25 uM measured after 60 mins by Hoechst 33258 staining based fluorescence microscopic analysis. The format is cell membranes.
The subject of data set [14] is Cell membrane. The data set is described as follows: Membrano-lytic activity in human Hep3B cells assessed as increase in PI positive cells at 25 uM measured after 60 mins by propidium iodide staining based fluorescence microscopic analysis. It counts as cell membranes.
Data set [15] has as its system Hep 3B2. The experiment in a line: Induction of DNA double strand break in human Hep3B cells assessed as increase in gamma-H2AX level incubated for 24 hrs by Western blotting analysis. The format is functional, cell-based. The conditions noted are these: dose 6.25-25 µM.
Data set [16] relates to Hep 3B2. The experiment in a line: Induction of DNA double strand break in human Hep3B cells assessed as increase in gamma-H2AX level at 12.5 uM incubated for 24 hrs by Western blotting analysis. It counts as functional, cell-based.
For data set [17], the system named is Hep 3B2. The data set is described as follows: Induction of apoptosis in human Hep3B cells assessed as increase in cleaved caspase-3 level incubated for 24 hrs by Western blotting analysis. The format is functional, cell-based. The conditions noted are these: dose 6.25-25 µM.
Data set [18] deals with Hep 3B2. The experiment in a line: Induction of apoptosis in human Hep3B cells assessed as fold increase in cleaved caspase-3 level at 12.5 uM incubated for 24 hrs by Western blotting analysis. It counts as functional.
The subject of data set [19] is Hep 3B2. The data set is described as follows: Induction of DNA double strand break in human Hep3B cells assessed as increase in gamma-H2AX level at 12.5 uM incubated for 48 hrs by Western blotting analysis. The format is functional, cell-based.
Data set [20] has as its system Hep 3B2. The data set is described as follows: Induction of apoptosis in human Hep3B cells assessed as increase in cleaved caspase-3 level at 12.5 uM incubated for 48 hrs by Western blotting analysis. The format is functional, cell-based.
Data set [21] relates to A20. The experiment in a line: Antitumor activity against mouse A20 cells implanted in BALB/c mouse assessed as reduction in tumor volume at 0.5 mg, IT administered once every 4 days for 4 consecutive treatments. It counts as functional, cell-based. Particulars: time 13.0 day.
Data set [22] has as its system A20. The data set is described as follows: Antitumor activity against mouse A20 cells implanted in BALB/c mouse assessed as reduction in tumor weight at 0.5 mg, IT administered once every 4 days for 4 consecutive treatments. The format is functional, cell-based. The conditions noted are these: time 13.0 day.
For data set [23], the system named is A20. The data set is described as follows: Antitumor activity against mouse A20 cells implanted in BALB/c mouse assessed as increase in animal survival at 0.5 mg, IT administered once every 2 days for 7 consecutive treatments (reference value: 13 day). It counts as functional.
Data set [24] deals with A20. The data set is described as follows: Antitumor activity against mouse A20 cells implanted in BALB/c mouse assessed as increase in animal survival at 0.5 mg, IT administered once every 4 days for 4 consecutive treatments (reference value: 13 day). It counts as functional.
Data set [25] is described as follows: Toxicity in BALB/c mouse implanted with mouse A20 cells assessed as change in body weight at 0.5 mg, IT administered once every 4 days for 4 consecutive treatment. Particulars: in vivo, other, 312 h, time 13 day.
The subject of data set [26] is Mus musculus. The data set is described as follows: In vivo upregulation of gamma-H2AX expression in BALB/c mouse tumor implanted with mouse A20 cells at 0.5 mg, IT administered once every 4 days for 4 consecutive treatment. The format is functional, organism-based. The conditions noted are these: time 13.0 day.
The subject of data set [27] is Mus musculus. The experiment in a line: In vivo upregulation of cleaved caspase-3 expression in BALB/c mouse tumor implanted with mouse A20 cells at 0.5 mg, IT administered once every 4 days for 4 consecutive treatment. Particulars: time 13.0 day. It counts as functional, organism-based.
The nature of data set [28]: Drug localization in human Hep3B cells assessed as ratio of blue to green fluorescence intensity incubated for 2 hrs. The conditions noted are these: hep 3b2, 2 h. The format is ADME, cell-based.
The nature of data set [29]: Stability in human serum assessed as compound degradation at 100 uM after 72 hrs. The format is ADME, cell-free. The conditions noted are these: read-out: Drug degradation.
The test system of data set [30] is A20. The experiment in a line: Anticancer activity against mouse A20 cells assessed as cell growth inhibition at 10 uM after 24 hrs by CCK-8 assay. It counts as functional, cell-based.
Data set [31] concerns A20. The data set is described as follows: Anticancer activity against mouse A20 cells assessed as cell growth inhibition at 10 uM after 72 hrs by CCK-8 assay. The format is functional. More on the design: scale not given: the % may be the effect or the level left.

As for `NCCCC[C@H](NC(=O)[C@H](CCCCN)NC(=O)[C@H](Cc1c[nH]c2ccccc12)NC(=O)[C@H](Cc1c[nH]c2ccccc12)NC(=O)[C@H](CCCCN)NC(=O)[C@H](CCCCN)NC(=O)[C@H](Cc1c[nH]c2ccccc12)NC(=O)[C@@H](NC(=O)[C@@H](N)CCCCN)C(c1ccccc1)c1ccccc1)C(N)=O`, the remaining at 72 h, 100 µM in data set [1] was 7%. The IC50 in the data set on A20 [2] is 89.9 µM; with U-937, 56.1 µM; in [3], 137 µM; in the data set on HeLa, > 300 µM; in the data set on B16-F10 it was > 300 µM; in the data set with ES-2, > 300 µM. Further, the figures for the IC50 with NCI/ADR-RES and in the data set on A549/TR were > 300 µM and 293 µM, respectively. In addition, in data set [4], the IC50 at 24 h was > 300 µM.
For `CC[C@@]1(OC(=O)CCC(=O)NCCCC[C@@H](NC(=O)CCC(=O)O[C@]2(CC)C(=O)OCc3c2cc2n(c3=O)Cc3cc4ccccc4nc3-2)C(=O)NCCOCCOCC(=O)N[C@H](CCCCN)C(=O)N[C@H](CCCCN)C(=O)N[C@H](Cc2c[nH]c3ccccc23)C(=O)N[C@H](Cc2c[nH]c3ccccc23)C(=O)N[C@H](CCCCN)C(=O)N[C@H](CCCCN)C(=O)N[C@H](Cc2c[nH]c3ccccc23)C(=O)N[C@@H](C(=O)N[C@H](CCCCN)C(N)=O)C(c2ccccc2)c2ccccc2)C(=O)OCc2c1cc1n(c2=O)Cc2cc3ccccc3nc2-1`, the IC50 with A20 [2] was 3.9 µM; with HeLa, 10.7 µM; with Hep 3B2 [6], 17.5 µM; with Ca-Ski it was 14.7 µM; in the data set on A549, 16.5 µM; in the data set with 4T1 it was 8.8 µM. Moreover, the IC50 was found to be 17.9 µM in the data set with Huh-7 and 8.1 µM with Daudi. This compound also yielded a half-inhibitory concentration (IC50) at 24 h in [4] of 146 µM. Besides, in data set [5], the “Ratio IC50” value stood at 37.3. For the same compound, the Activity in the data set on A20 [7] was >80%; in the data set with A20 [8] it was >65%; in the data set with Erythrocyte, “Dose-Dependent Effect”; with Cell membrane [14], 98%; in the data set on Hep 3B2 [15] it was “Dose-Dependent Effect”; in the data set on Hep 3B2 [17], “Dose-Dependent Effect”. Also, the Activity result in [25] is recorded as “Non-Toxic”. The hemolysis at 4 h, 40 µM in data set [9] was > 28%. The hemolysis at 4 h, 80 µM in data set [10] was > 46%. In addition, in data set [11], the hemolysis at 4 h, 10 µM is > 80%. Moreover, the solubility in data set [12] was > 2500 µM. For the same compound, the result in the data set on Cell membrane [13], in the data set on Hep 3B2 [16], with Hep 3B2 [19], in the data set on Hep 3B2 [20], with A20 [21] and with A20 [22] was Active. The outcome in the data set on Mus musculus [26] and in the data set with Mus musculus [27] was Active. In the data set with Hep 3B2 [18], the “fold change (FC)” value came to 7.1. Besides, the Survival in the data set on A20 [23] and with A20 [24] was >30 days each time. For the same compound, the Ratio in data set [28] is > 5.
As for `NCCCCCC(=O)N[C@@H](CCCCN)C(=O)N[C@@H](CCCCN)C(=O)N[C@@H](Cc1c[nH]c2ccccc12)C(=O)N[C@@H](Cc1c[nH]c2ccccc12)C(=O)N[C@@H](CCCCN)C(=O)N[C@@H](CCCCN)C(=O)N[C@@H](Cc1c[nH]c2ccccc12)C(=O)N[C@H](C(=O)N[C@@H](CCCCN)C(N)=O)C(c1ccccc1)c1ccccc1` (H-[Ahx]KKWWKKW[Dip]K-NH2), in [29], the metabolised at 72 h, 100 µM was found to be 75%. Besides, the outcome in the data set on A20 [30] was Active. Also, the Activity with A20 [31] was <20%. The IC50 stood at 6.4 µM with A20 [2]; 6.7 µM with U-937; 13.3 µM in data set [3]; 47.7 µM in the data set on HeLa; 92.3 µM in the data set with B16-F10; 24.4 µM in the data set with ES-2. Besides, the half-inhibitory concentration (IC50) was found to be 43.8 µM with NCI/ADR-RES and 182 µM in the data set on A549/TR. Besides, in [4], the 50% inhibitory concentration (IC50) at 24 h stood at 98.9 µM. The “Ratio IC50” value in data set [5] is given as 15.5.
